Assay in data set [1]: not given
This is another data set of the same source.

Assay in data set [2]: not given
This is another data set of the same source.

Where “and” joins values, the source holds several entries; their conditions need not be identical. Identical values can stand only once.

As for `COCCOCCOCCOC` [1,2-bis(2-methoxyethoxy)ethane], the flash point amounted to 113.00 °C.

On to `COc1ccccc1OC` [1,2-dimethoxybenzene], for which the flash point amounted to 72.00 °C.

`C1COCCO1` [1,4-dioxane] gave a flash point of 18.33 °C. Besides, in data set [1], the flash point worked out at 12.00 °C.

`CC(=O)c1ccccn1` [1-(2-pyridyl)ethanone]: the flash point is 76.00 °C.

In turn, `CCCCOCCOCCOCCCC` [1-[2-(2-butoxyethoxy)ethoxy]butane] gave a flash point of 101.00 °C. The compound also had a flash point in data set [1] of 118.00 °C.

`CC(Cl)OC(C)Cl` (centres undefined) [1-chloro-1-(1-chloroethoxy)ethane] displayed a flash point of 55.00 °C.

Regarding `ClCCOCCCl` [1-chloro-2-(2-chloroethoxy)ethane], the flash point was determined as 55.00 °C.

Take `COCCCl` [1-chloro-2-methoxyethane]: the flash point was found to be 15.00 °C.

Turning to `Clc1ccc(Oc2ccccc2)cc1` [1-chloro-4-(phenoxy)benzene], the flash point was 113.00 °C.

As for `CC(O)CCl` (centres undefined) [1-chloropropan-2-ol], the flash point turned out to be 51.00 °C.

`CC(C)CCOCCC(C)C` [1-isopentyloxy-3-methylbutane] displayed a flash point of 46.00 °C.

Compound `COCC(C)O` (centres undefined) [1-methoxypropan-2-ol] displayed a flash point of 33.00 °C.

With `OCC(CO)(CO)CO` [2,2-bis(hydroxymethyl)propane-1,3-diol], the flash point is 240.00 °C.

As to `CCC(CC)(CO)CO` [2,2-diethylpropane-1,3-diol], the flash point was determined as 107.00 °C.

The compound `CC(C)C(C)C(C)CO` (centres undefined) [2,3,4-trimethylpentan-1-ol] returned a flash point of 60.00 °C.

`CC(C)(C)c1cccc(C(C)(C)C)n1` [2,6-ditert-butylpyridine]: the flash point was 72.00 °C.

In the case of `OCCOCCO` [2-(2-hydroxyethoxy)ethanol], the flash point was 138.33 °C and 143.00 °C.

Take `CCCCOCC1CO1` (centres undefined) [2-(butoxymethyl)oxirane]: the flash point came to 41.00 °C. In data set [1], this compound registered a flash point of 54.00 °C.

Compound `CC(CO)(CO)CO` [2-(hydroxymethyl)-2-methylpropane-1,3-diol] gave a flash point of 160.00 °C.

Take `c1ccc(OCC2CO2)cc1` (centres undefined) [2-(phenoxymethyl)oxirane]: the flash point was 115.00 °C.

`OCCOCCOCCO` [2-[2-(2-hydroxyethoxy)ethoxy]ethanol] had a flash point of 162.78 °C.

The compound `CCCCC(CC)(CO)CO` [2-butyl-2-ethylpropane-1,3-diol] registered a flash point of 113.00 °C.

For the compound `Nc1ccccc1Cl` [2-chloroaniline], the flash point stood at 98.00 °C.

As for `CCN(CC)CCO` [2-diethylaminoethanol], the flash point is 51.50 °C.

`CCC(CC)CO` [2-ethylbutan-1-ol] showed a flash point of 58.33 °C. The compound also had a flash point in data set [1] of 53.00 °C.

`OCc1ccco1` [2-furylmethanol] gave a flash point of 83.33 °C.

As to `CCC(C)(C)O` [2-methylbutan-2-ol], the flash point was determined as 20.00 °C. In data set [1], this compound came in with a flash point of 19.00 °C.

In turn, `CC(C)(C)CCO` [3,3-dimethylbutan-1-ol] gave a flash point of 29.00 °C.

With `Nc1cccc(Cl)c1` [3-chloroaniline], the flash point was 118.00 °C.

Turning to `CCCCC(C)(O)CC` (centres undefined) [3-methylheptan-3-ol], the flash point came to 54.00 °C.

For `C=CC1CC=CCC1` (centres undefined) [4-vinylcyclohexene], the flash point was determined as 21.00 °C.

In turn, `CCC(C)CC(O)CC` (centres undefined) [5-methylheptan-3-ol] yielded a flash point of 54.00 °C.

`C/C=C\C` [(z)-but-2-ene] returned a flash point of -73.00 °C.

`CN(C)C=O` [N,N-dimethylformamide] had a flash point of 57.00 °C. The flash point in data set [1] amounted to 67.00 °C.

Take `CCNCC` [N-ethylethanamine]: the flash point is -28.00 °C. In data set [1], this compound gave a flash point of -29.00 °C.

Turning to `C=C[Si](Cl)(Cl)Cl` [Vinyltrichlorosilane], the flash point in data set [2] turned out to be 21.00 °C.

`C=C[Si](OC)(OC)OC` [Vinyltrimethoxysilane] displayed a flash point in data set [2] of 23.00 °C.

`OCc1ccc(CO)cc1` [[4-(hydroxymethyl)phenyl]methanol] displayed a flash point of 187.80 °C.

As to `C=CCOc1ccccc1` [allyloxybenzene], the flash point is 62.00 °C.

In turn, `CCC(C)O` (centres undefined) [butan-2-ol] yielded a flash point of 22.22 °C. Moreover, the flash point in data set [1] stood at 24.00 °C.

`CC(O)CCO` (centres undefined) [butane-1,3-diol]: the flash point was 108.89 °C.

`OCCCCO` [butane-1,4-diol] displayed a flash point of 121.11 °C.

With `CCCCCCCCCCO` [decan-1-ol], the flash point stood at 104.44 °C. The compound also registered a flash point in data set [1] of 82.00 °C.

Take `C=COCC` [ethoxyethylene]: the flash point was -46.00 °C.

`CCCCCC(C)N` (centres undefined) [heptan-2-amine] displayed a flash point of 54.00 °C.

For `CCCCCCO` [hexan-1-ol], the flash point came out at 73.89 °C. Besides, in data set [1], the flash point was determined as 63.00 °C.

In data set [2], `CCCC[Si](C)(Cl)Cl` [n-Butylmethyldichlorosilane] showed a flash point of 30.00 °C.

With `CCCCCCCCCCCC[Si](C)(Cl)Cl` [n-Dodecylmethyldichlorosilane], the flash point in data set [2] stood at 143.00 °C.

Compound `CCCCCCC[Si](C)(Cl)Cl` [n-Heptylmethyldichlorosilane] registered a flash point in data set [2] of 66.00 °C.

In turn, `CCCCCCC[Si](Cl)(Cl)Cl` [n-Heptyltrichlorosilane] gave a flash point in data set [2] of 64.00 °C.

For `CCCCCC[Si](C)(Cl)Cl` [n-Hexylmethyldichlorosilane], the flash point in data set [2] is 85.00 °C.

As to `CCCCCC[Si](Cl)(Cl)Cl` [n-Hexyltrichlorosilane], the flash point in data set [2] is 85.00 °C.

Turning to `CCCCCCCCCCCCCCCCCC[Si](Cl)(Cl)Cl` [n-Octadecyltrichlorosilane], the flash point in data set [2] came to 193.00 °C.

For the compound `CCCCCCCC[SiH3]` [n-Octylsilane], in data set [2], the flash point stood at 36.00 °C.

Consider `CCC[Si](Cl)(Cl)Cl` [n-Propyltrichlorosilane], for which the flash point in data set [2] came to 37.00 °C.

The compound `C=CC(O)CCCCC` (centres undefined) [oct-1-en-3-ol] showed a flash point of 68.00 °C.

As for `CCCCCCCCO` [octan-1-ol], the flash point was 90.56 °C. For the same compound, the flash point in data set [1] is 81.00 °C.

`CCCCCCC(C)O` (centres undefined) [octan-2-ol] gave a flash point of 85.00 °C. The same compound displayed a flash point in data set [1] of 76.00 °C.

Take `CCCC(C)O` (centres undefined) [pentan-2-ol]: the flash point is 40.56 °C. In data set [1], this compound registered a flash point of 35.00 °C.

The compound `OCCCCCO` [pentane-1,5-diol] came in with a flash point of 129.44 °C.

For `OCCCO` [propane-1,3-diol], the flash point turned out to be 79.00 °C.

`C[SiH](C)C(C)(C)C` [t-Butyld imethyl silane] came in with a flash point in data set [2] of -22.00 °C.

As to `CCCCCCCCCCCCCCO` [tetradecan-1-ol], the flash point amounted to 145.00 °C. In addition, the flash point in data set [1] is 141.00 °C.

The compound `CCCCCCCCCCCCCO` [tridecan-1-ol] yielded a flash point of 116.00 °C. The compound further had a flash point in data set [1] of 121.00 °C.

Source of the values: a flash point compilation (Sun et al. 2020).
